Experimental data published in patent US6660757B2, “Use of riluzole in the treating acoustic traumas” (Aventis Pharmaceuticals Inc., priority 1998, dated 2003).

Tests used:
[1] = system: acoustic trauma; assay: protective effect on acoustic trauma (sound overstimulation 6 kHz, 130 dB SPL, 15 minutes); type: in vivo, guinea pigs; settings: 500 μM in perilymph
Protocol: The protective effect on acoustic trauma was tested on 10 animals for which a preliminary infusion of artificial perilymph is carried out for 10 minutes. After evaluation of the audiometric thresholds, a second 35 minute infusion either of artificial perilymph alone (5 animals: control group) or of perilymph containing 500 μM riluzole (5 animals) is carried out. Ten minutes after the start of the second infusion, a sound overstimulation (6 kHz, 130 dB SPL) is applied for 15 minutes. Finally, a third infusion of artificial perilymph allows rinsing of the cochlea. The audiometric thresholds are then recorded. The auditory loss for each frequency induced by sound exposure is defined as the difference between the audiometric thresholds recorded before and after the sound over-exposure.

[2] = system: compound action potential (CAP) of the auditory nerve; assay: acute perifusion of the cochleae: effect of increasing doses on cochlear potentials (CAP); type: in vivo, guinea pigs
Text: The effect of riluzole in increasing doses was studied according to the technique of acute perifusion of the cochleae:
10 tricolor guinea pigs weighing 200 to 400 g are anesthetized by intraperitoneal injection of urethane (1.4 g/kg) and then trachetomized and artificially ventilated. The external auditory canals are incised for the putting in place of ear bars in a restraining apparatus. During the entire duration of the experiment, the electrocardiogram is monitored and the central temperature regulated by means of a heating cover at 38.5±1° C. The experiments are carried out in a soundproofed, anechoic and faradized chamber. Access to the cochlea is obtained via a ventral approach. After opening of the tympanic bulla, 3 holes 0.2 mm in diameter are manually cut in the basal turn of the cochlea: the first in the tympanic ramp to receive an infusion pipette, the second in the vestibular ramp to allow the outflow of the infused solutions out of the cochlea and the third also in the vestibular ramp to receive a recording electrode.
The cochlear potentials recorded in the vestibular ramp are stored and then numerically filtered to dissociate the compound action potential (CAP), a control for the activity of the auditory nerve and the receptor potentials obtained from the ciliated cells, namely the microphonic potential (MP) and the summation potential (SP). A low-pass filter of 2.5 kHz is used to extract the CAP whose amplitude is measured between N1 (1st negative wave) and P1 (1st positive wave) as well as the SP measured between 0 and 5 ms. A band-pass filter around 8 kHz (acoustic stimulation frequency) is used to extract the MP (6-10 kHz, filter slope: 48 db/octave).
After introducing the pipette (about 0.1 mm in diameter at the tip) into the tympanic ramp with the aid of a micromanipulator, leaktightness being provided by means of a glue ball placed near the tip, artificial perilymph is infused at the rate of 2.5 μl/min. A second infusion of artificial perilymph containing 0.1% dimethyl sulfoxide is carried out. […] These cochlear potentials are recorded immediately after each infusion. The duration of the infusions is 10 minutes.
The IC50 is observed for a dose of 300 μM (FIG. 2). In all the animals, a complete disappearance of the CAP is obtained for a dose of 500 μM.

[3] = cumulative increasing doses 50 to 500 μM, intracochlear infusion

- IC50 ([2]; Cavia porcellus, 10 min, intracochlear infusion of cumulative increasing doses 50 to 500 μM in artificial perilymph with 0.1% dimethyl sulfoxide, 10 minutes each, read-out: IC50 for reduction of the amplitude of the compound action potential (CAP)): 300 µM
SMILES: Nc1nc2ccc(OC(F)(F)F)cc2s1 [riluzole, 2-amino-6-trifluoromethoxy-benzothiazole]
- auditory losses after sound overstimulation versus control group ([1]; 35 minute infusion, frequencies of between 8 and 16 kHz): control group exhibits, for frequencies of between 8 and 16 kHz, much higher auditory losses
- histological study of the cochleae by electron microscopy: innervation ([1]; after sound overstimulation): virtually normal innervation
- effect on CAP of the auditory nerve [2, 3]: reduction in the compound action potential (CAP) of the auditory nerve dependant on the dose
- effect on latency N1 of the CAP [2, 3]: increase in the latency N1
- dose for complete disappearance of the CAP ([2]; intracochlear infusion, in all the animals): 500 µM
